The results in this text go back to US20050147608A1, “Novel regulatory mechanisms of NF-kappaB” (Beth Israel Deaconess Medical Center, Inc., priority 2003, published 2005).

Data set [1] relates to p65-T254A. The data set is described as follows: Protein degradation assay (cycloheximide chase, immunoblot) of p65-T254A in 293T cells. The class given is cell-based. More on the design: dose or concentration left out as unconfirmed. The method, then: (A, B) Stabilization of p65-T254A by a proteosome inhibitor. 293T cells expressing Xpress-p65-T254A or Xpress-LacZ were treated with cycloheximide and MG-132 ([…]) or the solvent DMSO for the times indicated, followed by immunoblot with anti-Xpress antibody (A), followed by semi-quantification with Imagequant (B). (C) Ubiquitination of p65 in vitro. In vitro translated 35 S-labeled p65 was incubated with ubiquitin in the presence or absence of E1 and UbcH5a for times indicated, followed by separation on SDS-PAGE and autoradiography. (D) Ubiquitination of the GST-p65 fragment B, but A or C. GST-p65 truncation mutants (FIG. 3D) were incubated with HeLa S-100 extracts, ubiquitin, E1 and either UbcH5a or UbcH6 for 3 hrs, followed by GST pulldown and immunoblotting with anti-ubiquitin antibody. (E) Ubiquitination of GST-p65 fragment B via UbcH5a. GST-p65-truncated mutant B was subjected to ubiquitination assay in vitro using different E2 enzymes.
293T cells were transfected with Xpress-tagged p65. A plasmid encoding Xpress-LacZ was used as a transfection control. […] Cells were harvested at each time points, and total lysates were analyzed by immunoblotting with anti-Xpress antibody (Invitrogene). The blots were scanned and semi-quantified by using the software NIH image 1.6.2, as described (Ryo et al., 2001). […]

Data set [2] concerns p65. Description: p65 protein stability in Pin1−/− MEFs. The class given is cell-based, mouse. An excerpt:
The ability of Pin1 to regulate the protein stability of p65 led to another surprising finding in this study, which is the ubiquitin-mediated proteolysis of p65. Although the ubiquitin-mediated proteolysis of IkBα has been well characterized (Baeuerle and Baltimore, 1996; Ghosh et al., 1998), a similar regulation has not been previously described for NF-kB itself. […] Furthermore, even in Pin1+/+ cells, the point mutation in p65 (T254A) that disrupts its binding to Pin1 converts p65 from a stable into an extremely unstable protein due to rapid nuclear export and subsequent protein degradation.

For data set [3], the system named is p65-T254A. The data set is described as follows: Co-immunoprecipitation of Pin1 with Xpress-tagged p65-T254A in 293T cells after proteasome inhibition. The format is cell-based. The note with it: 20 μM MG-132 for 12 hr. The protocol:
(G) Failure of Pin1 to bind p65-T254A. 293T cells were co-transfected with Pin1 and Xpress-tagged p65 or its T254A mutant. After cells were incubated with 20 μM MG-132 for 12 hr, they were subjected to immunoprecipitation analysis with anti-Xpress antibody, followed by immunoblot with anti-p65 or anti-Pin1 antibodies.
(§1) Cells were arrested at the G1/S phase or the mitotic phase, as describe previously. Total cells, 293T or HeLa, were lysed with GST-pulldown buffer (50 mM Hepes pH7.4, 150 mM NaCl, 10% glycerol, 1% Triton-X100, 1.5 mM MgC12, 1 mM EGTA, 100 mM NaF, 1 mM Na3VO4, 1 mM DTT and 0.5 μg/ml Leupeptin, 1.0 μg/ml Pepstatin, 0.2 mM PMSF) and incubated were incubated with 20 μl of agarose beads containing GST-Pin1 or GST at 4° C. for 2 hr, as described previously (Ryo et al., 2001). The precipitated proteins were washed three times with wash buffer containing and subjected to SDS-PAGE. For immunoprecipitation, cells were harvested at 24 hr after transfection and lysed with NP-40 lysis buffer (10 mM Tris HCl pH7.5, 100 mM NaCl, 0.5% NP-40, 1 mM Na3VO4, 0.5 μg/ml Leupeptin, 1.0 μg/ml Pepstatin, 0.2 mM PMSF). Cell lysates were incubated for 1 hr with Protein A/G Sepahrose/mouse IgG complexes.
Three truncation mutants of p65 were generated and subjected them to the GST-pulldown assay. […]

The test system of data set [4] is p65. Description: In vivo ubiquitination assay of p65 in HeLa cells (His-ubiquitin, Ni-agarose pulldown). The format is cell-based. The note with it: His-tagged ubiquitin, MG-132 for 16 hr. The protocol:
(F) Ubiquitination of p65 in vivo. HeLa cells expressing p65, UbcH5a and His-tagged ubiquitin or vector controls were treated with MG-132 or DMSO control for 16 hr, followed by lysis using sonication in a buffer containing 6M urea. Ubiquitin-conjugated proteins were captured with […] beads and subjected to immunoblot with anti-p65 antibody.
To examine which region of the p65 molecule can be ubiquitinated, different GST-p65 fragments (FIG. 3D) were incubated with S100 HeLa cells extracts, ubiquitin, E1 and UbcH5a or UbcH6, and then purified GST-p65 fragments using GST beads, followed by immunoblot with anti-ubiquitin antibodies. Although neither the fragment A nor C was ubiquitinated, fragment B, which contains the Pin1 binding Thr254-pro motif (FIG. 3E), was poly-ubiquitinated with UbcH5a, but not with UbcH6 (FIG. 6D). To examine whether other E2 enzymes could catalyze the ubiquitination of p65 in vitro, we incubated recombinant GST-p65 fragment B with in vitro ubiquitination assay using different E2 enzymes. Out of the 8 E2 enzymes examined, only UbcH5a effectively conjugated multiple ubiquitin molecules into p65 (FIG. 6E). […] However, no ubiquitinated p65 was detected in the absence of His ubiquitin and/or MG-132 (FIG. 6F), indicating the specificity of the in vivo ubiquitination assay.

In a further data set the test system is Pin1 and p65. Description: GST-Pin1 pulldown of Xpress-tagged p65 from 293T cells. The format is binding. The note with it: 293T cells treated with TNF-α for 3 hrs vs PBS. The protocol: (D) Enhancement of Pin1 and p65 binding by TNF-α. 293T cells expressing Xpress-tagged p65 were treated with PBS or TNF-αfor 3 hrs, followed by GST-pull down experiment and immunoblot with anti-Xpress antibody.
as §1
Pin1 binds and isomerizes specific pSer/Thr-Pro motifs in certain phosphoproteins. To explore the molecular mechanism of NF-kB activation by Pin1, it was investigated as to whether any components of NF-kB or IkBα are Pin1 substrates. […]

The subject of the next data set is NF-κB. The data set is described as follows: NF-κB-Luc gene reporter assay in breast cancer cell lines after Pin1 inhibition. The format is cell-based. The note with it: BT20 (ER-negative) and MCF-7 (ER-positive) cells, both cell lines; 48 hrs after transfection. An excerpt: (C) Inhibition of NF-κB activation and NF-κB DNA binding activity in breast cancer cell lines by downregulation of Pin 1. Two breast cancer cell lines were transfected with Pin1-specific or non-specific siRNA together with a NF-kB-Luc or TK-Luc reporter construct for 48 hrs, followed by assaying luciferase activity and Pin1 protein levels (insets) (C) or assaying NF-κB DNA binding activity by EMSA using NF-κB or OCT1 consensus oligonucleotides (D).
Approximately 60% confluent cells were transfected in triplicate in 12 well dishes with Effectene (Qiagen). Gene reporter assays were performed with Dual-Luciferase reporter assay system (Promega) at 24-36 hr after transfection as described previously (Wulf et al., 2001). pRL-TK (Promega) was used as an internal control for transfection efficiency. All results are expressed as X±SD of independent triplicate cultures. For gene reporter assays in breast cancer cell line, cells were transfected with pSuppressor Neo vector encoding Pin1 specific siRNA (5′-[…]-3′) or non-specific siRNA (5′-[…]-3′) together with Ig-kB luciferase construct and pRL-TK. After 48 hr, cells were lysed and subjected to gene reporter assay.
Given that the NF-κB activation is regulated by a series of phosphorylation events, it was investigated whether Pin1 is involved in this regulation. […]

Where a SMILES comes first, the peptide text is derived from it. The star is where a group is joined. Cbz = O=C(OCc1ccccc1)*

On to `CC(C)C[C@@H](C=O)NC(=O)[C@H](CC(C)C)NC(=O)[C@H](CC(C)C)NC(=O)OCc1ccccc1` [MG-132] (Cbz-Leu-Leu-Leu-aldehyde), for which the “half-life of p65-T254A protein” value with p65-T254A [1] is listed as “strikingly prolonged the half-life of p65-T254A protein”. Besides, in the data set with p65 [2], the “stability of p65” value is reported as “could be stabilized”. Besides, the “stability of p65-T254A” value with p65-T254A [3] was “p65-T254A was stable”. Moreover, the “poly-ubiquitination of p65” value with p65 [4] is listed as “p65 was substantially poly-ubiquitinated”.

In the case of TNF-α, the “increase of Pin1-p65 binding” value with Pin1 and p65 is about 3 fold.

Consider “siRNA: pSuppressor Neo vector encoding Pin1 specific siRNA (5′-GCCACATCACTAACGCCAGC-3′) (expressed from pSuppressor Neo vector)”, for which the “transcriptional activity of NF-κB-Luc” value in the data set with NF-κB is “significantly suppressed the transcriptional activity of NF-κB-Luc”.
